Reference: the NIST ThermoML archive (doi:10.1016/j.jct.2007.04.005)
± gives the expanded uncertainty stated by the source.

Assay: xn = mol fraction of the nth substance listed
Conditions: 328.15 K, Liquid

CCCCCCCCC [nonane] + C1CCCCC1
mass density [kg/m3]
Conditions	x2 = 0	x2 = 0.09303	x2 = 0.2009	x2 = 0.3051	x2 = 0.417	x2 = 0.512	x2 = 0.5996	x2 = 0.7052	x2 = 0.7993	x2 = 0.9039
18340 kPa	–	–	–	–	–	–	–	737.9 ± 1.3	744.5 ± 1.3	753.1 ± 1.2
20370 kPa	708.4 ± 1.6	711.2 ± 1.6	715.1 ± 1.5	719 ± 1.5	723.6 ± 1.5	728 ± 1.5	733 ± 1.4	739.5 ± 1.4	746.2 ± 1.4	754.8 ± 1.3
22390 kPa	710 ± 1.7	712.8 ± 1.7	716.7 ± 1.6	720.6 ± 1.6	725.2 ± 1.6	729.6 ± 1.5	734.7 ± 1.5	741.2 ± 1.5	747.9 ± 1.4	756.5 ± 1.4
24420 kPa	711.5 ± 1.8	714.4 ± 1.7	718.2 ± 1.7	722.2 ± 1.7	726.8 ± 1.6	731.2 ± 1.6	736.3 ± 1.6	742.8 ± 1.5	749.5 ± 1.5	758.1 ± 1.4
26450 kPa	713 ± 1.9	715.9 ± 1.8	719.8 ± 1.8	723.7 ± 1.8	728.3 ± 1.7	732.7 ± 1.7	737.9 ± 1.6	744.4 ± 1.6	751.1 ± 1.6	759.8 ± 1.5
28470 kPa	714.5 ± 1.9	717.4 ± 1.9	721.3 ± 1.9	725.2 ± 1.8	729.8 ± 1.8	734.2 ± 1.8	739.4 ± 1.7	746 ± 1.7	752.6 ± 1.6	761.4 ± 1.6
29490 kPa	715.2 ± 2	718.1 ± 1.9	722 ± 1.9	725.9 ± 1.9	730.6 ± 1.8	735 ± 1.8	740.2 ± 1.8	746.7 ± 1.7	753.4 ± 1.7	762.1 ± 1.6
30500 kPa	716 ± 2	718.8 ± 2	722.8 ± 1.9	726.7 ± 1.9	731.3 ± 1.9	735.7 ± 1.8	740.9 ± 1.8	747.5 ± 1.7	754.2 ± 1.7	762.9 ± 1.6
32530 kPa	717.4 ± 2.1	720.3 ± 2.1	724.2 ± 2	728.1 ± 2	732.8 ± 1.9	737.2 ± 1.9	742.4 ± 1.9	748.9 ± 1.8	755.7 ± 1.8	764.4 ± 1.7
34550 kPa	718.8 ± 2.2	721.7 ± 2.1	725.6 ± 2.1	729.6 ± 2.1	734.2 ± 2	738.7 ± 2	743.9 ± 1.9	750.5 ± 1.9	757.1 ± 1.8	765.9 ± 1.8
36580 kPa	720.2 ± 2.3	723.1 ± 2.2	727 ± 2.2	730.9 ± 2.1	735.7 ± 2.1	740.1 ± 2	745.3 ± 2	751.9 ± 1.9	758.6 ± 1.9	767.4 ± 1.8
38600 kPa	721.6 ± 2.3	724.4 ± 2.3	728.4 ± 2.3	732.3 ± 2.2	737 ± 2.2	741.5 ± 2.1	746.7 ± 2.1	753.3 ± 2	760 ± 2	768.9 ± 1.9
39620 kPa	722.2 ± 2.4	725.1 ± 2.3	729 ± 2.3	733 ± 2.2	737.7 ± 2.2	742.1 ± 2.2	747.4 ± 2.1	754 ± 2.1	760.7 ± 2	769.6 ± 1.9
